Data taken from patent US11607458B2 (Georgia State University Research Foundation, Inc, priority 2017, dated 2023).

Tests used:
[1] = HPLC studies of reaction kinetics of tetrazine prodrugs with cyclooctyne alkynes (Kobs, second-order rate constant k2); assay type: physicochemical; details: for Kobs: prodrug 25 μM; for k2 at 37° C. (second order rate constant) / k2 at r.t (second order rate constant): PBS containing 10% DMSO, n = 3
Experimental: Stock solution preparation. Each of the tetrazine prodrugs (compounds 1b, 1c, and 1d) was dissolved in DMSO to afford a 500-μM stock solution. Each of the alkynes (compounds 2a, 2b, 2c, and 2d) was dissolved in DMSO to afford a 50-mM stock solution. Doxorubicin (Dox) and dansylamino compound (DA) 1.1b were each dissolved in DMSO to afford 1-mM stock solutions.
HPLC method A.: mobile phase A (10 mM NaH2PO4 in water, pH=5.0) and mobile phase B (ACN), flow rate: 1 mL/min, running time: 30 min, the gradient elution method: 25% B from 0 to 6 min, 25% to 50% B from 6 to 8 min, 50% B from 8 to 15 min, 50% to 99% B from 15 to 20 min, 99% B from 20 to 25 min, 99% to 25% B from 25 to 30 min. Detection wavelength: 256 nm. Column: Waters C18 3.5 μM, 4.6×100 mm. Injection volume: 20 μL.
HPLC method B: mobile phase A (10 mM NaH2PO4 in water, pH=5.0) and mobile phase B (ACN), flow rate: 1 mL/min, running time: 30 min, the gradient elution method: 30% B from 0 to 6 min, 30% to 50% B from 6 to 8 min, 50% B from 8 to 15 min, 50% to 99% B from 15 to 20 min, 99% B from 20 to 25 min. 99% to 30% B from 25 to 30 min. Detection wavelength 1: 256, detection wavelength 2: 337 nm. Column: Waters C18 3.5 μM, 4.6×100 mm. Injection volume: 20 μL.
General procedures HPLC studies of reaction kinetics. To three 20-ml vials with 9 mL PBS were added a solution of tetrazine prodrug (500 μL, 500 μM). 350 μL, 300 μL and 250 μL DMSO were added to vial respectively, and then 150 μL, 200 μL and 250 μL of the alkyne solution (50 mM in DMSO) were added to the vials to afford final concentrations of alkyne 0.75 mM, 1 mM and 1.25 mM in PBS (10% DMSO, 25 μM prodrug) respectively. The reaction was stirred at r.t or 37° C. respectively. Every 30 min about 500 μL reaction mixtures were taken out and 20 μL of them were injected into the HPLC by the autosampler; the rest of them were poured back to the reaction mixture. (Note: In the cases of prodrugs 1d or 1b reacting with alkyne 2d at 37° C., the final concentrations of 2d in the kinetic studies were 250 μM, 300 μM and 350 μM).
Determination of second-order rate constants. The reaction rate constant, kobs, was calculated for each concentration of the alkyne by fitting the prodrug areas versus time using eq. 1: Y=A exp(−kobst) eq. 1 where Y is the prodrug area, and t is time. The pseudo-first-order rate constant, kobs, was then plotted against the concentration of alkyne to yield the second-order rate constant using eq 2: kobs=k2[Alkyne] eq. 2 where k2 is the second-order rate constant.

[2] = Determination of the lactonization rate constants (k1) by HPLC; assay type: physicochemical; details: for Lactonization rate constant k1: r.t., PBS (15% DMSO)
Experimental: General procedure for the determination of the lactonization rate constants. To a 9 mL PBS in a 20-mL vial was added a solution of the respective tetrazine prodrug (500 μL, 500 μM). Then 1 mL of the respective alkyne (50 mM in DMSO) was added to afford a final concentration of 5 mM in PBS (15% DMSO). The reaction was stirred at r.t. Every 30 min about 500 μL the reaction mixture was taken out and 20 μL of them was injected into the HPLC by an autosampler; the rest of them was poured back to the reaction mixture. The reaction rate constant, k1, was determined by fitting the area in HPLC chromatogram of the intermediate versus time using eq. 3: Y=A exp(−k1t) eq. 3 where Y is the intermediate areas, and t is the time.

SMILES: C#CCOc1ccc(-c2nnc(C(=O)NC3CC(OC4CC(O)(C(=O)CO)Cc5c(O)c6c(c(O)c54)C(=O)c4c(OC)cccc4C6=O)OC(C)C3O)nn2)cc1 (centres unmarked) [1b]
- Kobs ([1]; 37° C., alkyne 2a 0.75 mM, Expt. 1): 0.418 h⁻¹
- Kobs ([1]; 37° C., alkyne 2a 0.75 mM, Expt. 2): 0.438 h⁻¹
- Kobs ([1]; 37° C., alkyne 2a 0.75 mM, Expt. 3): 0.495 h⁻¹
- Kobs ([1]; 37° C., alkyne 2a 1.00 mM, Expt. 1): 0.546 h⁻¹
- Kobs ([1]; 37° C., alkyne 2a 1.00 mM, Expt. 2): 0.598 h⁻¹
- Kobs ([1]; 37° C., alkyne 2a 1.00 mM, Expt. 3): 0.678 h⁻¹
- Kobs ([1]; 37° C., alkyne 2a 1.25 mM, Expt. 1): 0.673 h⁻¹
- Kobs ([1]; 37° C., alkyne 2a 1.25 mM, Expt. 2): 0.739 h⁻¹
- Kobs ([1]; 37° C., alkyne 2a 1.25 mM, Expt. 3): 0.857 h⁻¹
- Kobs ([1]; 37° C., alkyne 2b 0.75 mM, Expt. 1): 0.486 h⁻¹
- Kobs ([1]; 37° C., alkyne 2b 0.75 mM, Expt. 2): 0.503 h⁻¹
- Kobs ([1]; 37° C., alkyne 2b 0.75 mM, Expt. 3): 0.533 h⁻¹
- Kobs ([1]; 37° C., alkyne 2b 1.00 mM, Expt. 1): 0.635 h⁻¹
- Kobs ([1]; 37° C., alkyne 2b 1.00 mM, Expt. 2): 0.672 h⁻¹
- Kobs ([1]; 37° C., alkyne 2b 1.00 mM, Expt. 3): 0.622 h⁻¹
- Kobs ([1]; 37° C., alkyne 2b 1.25 mM, Expt. 1): 0.783 h⁻¹
- Kobs ([1]; 37° C., alkyne 2b 1.25 mM, Expt. 2): 0.846 h⁻¹
- Kobs ([1]; 37° C., alkyne 2b 1.25 mM, Expt. 3): 0.905 h⁻¹
- Kobs ([1]; 37° C., alkyne 2c 0.75 mM, Expt. 1): 0.0607 h⁻¹
- Kobs ([1]; 37° C., alkyne 2c 0.75 mM, Expt. 2): 0.0671 h⁻¹
- Kobs ([1]; 37° C., alkyne 2c 0.75 mM, Expt. 3): 0.0696 h⁻¹
- Kobs ([1]; 37° C., alkyne 2c 1.00 mM, Expt. 1): 0.0798 h⁻¹
- Kobs ([1]; 37° C., alkyne 2c 1.00 mM, Expt. 2): 0.0895 h⁻¹
- Kobs ([1]; 37° C., alkyne 2c 1.00 mM, Expt. 3): 0.0941 h⁻¹
- Kobs ([1]; 37° C., alkyne 2c 1.25 mM, Expt. 1): 0.0986 h⁻¹
- Kobs ([1]; 37° C., alkyne 2c 1.25 mM, Expt. 2): 0.112 h⁻¹
- Kobs ([1]; 37° C., alkyne 2c 1.25 mM, Expt. 3): 0.119 h⁻¹
- Kobs ([1]; 37° C., alkyne 2d 0.25 mM, Expt. 1): 1.90 h⁻¹
- Kobs ([1]; 37° C., alkyne 2d 0.25 mM, Expt. 2): 1.81 h⁻¹
- Kobs ([1]; 37° C., alkyne 2d 0.25 mM, Expt. 3): 1.97 h⁻¹
- Kobs ([1]; 37° C., alkyne 2d 0.3 mM, Expt. 1): 2.28 h⁻¹
- Kobs ([1]; 37° C., alkyne 2d 0.3 mM, Expt. 2): 2.15 h⁻¹
- Kobs ([1]; 37° C., alkyne 2d 0.3 mM, Expt. 3): 2.38 h⁻¹
- Kobs ([1]; 37° C., alkyne 2d 0.35 mM, Expt. 1): 2.65 h⁻¹
- Kobs ([1]; 37° C., alkyne 2d 0.35 mM, Expt. 2): 2.48 h⁻¹
- Kobs ([1]; 37° C., alkyne 2d 0.35 mM, Expt. 3): 2.78 h⁻¹
- k2 at 37° C. (second order rate constant) ([1]; alkyne 2a, 37° C.): 0.17 M⁻¹ s⁻¹
- k2 at 37° C. (second order rate constant) ([1]; alkyne 2a, 37° C., listed as lb): 0.17 ± 0.05 M⁻¹ s⁻¹
- k2 at r.t (second order rate constant) ([1]; alkyne 2a, r.t): 0.061 ± 0.013 M⁻¹ s⁻¹
- k2 at 37° C. (second order rate constant) ([1]; alkyne 2b, 37° C.): 0.19 M⁻¹ s⁻¹
- k2 at 37° C. (second order rate constant) ([1]; alkyne 2b, 37° C., listed as lb): 0.19 ± 0.04 M⁻¹ s⁻¹
- k2 at r.t (second order rate constant) ([1]; alkyne 2b, r.t): 0.065 ± 0.013 M⁻¹ s⁻¹
- k2 at 37° C. (second order rate constant) ([1]; alkyne 2c, 37° C.): 0.025 ± 0.006 M⁻¹ s⁻¹
- k2 at r.t (second order rate constant) ([1]; alkyne 2c, r.t): 0.0078 ± 0.0009 M⁻¹ s⁻¹
- k2 at 37° C. (second order rate constant) ([1]; alkyne 2d, 37° C.): 2.1 M⁻¹ s⁻¹
- k2 at 37° C. (second order rate constant) ([1]; alkyne 2d, 37° C., listed as lb): 2.1 ± 0.4 M⁻¹ s⁻¹
- k2 at r.t (second order rate constant) ([1]; alkyne 2d, r.t): 0.36 ± 0.07 M⁻¹ s⁻¹
- Kobs ([1]; r.t, alkyne 2a 0.75 mM, Expt. 1): 0.183 h⁻¹
- Kobs ([1]; r.t, alkyne 2a 0.75 mM, Expt. 2): 0.191 h⁻¹
- Kobs ([1]; r.t, alkyne 2a 0.75 mM, Expt. 3): 0.185 h⁻¹
- Kobs ([1]; r.t, alkyne 2a 1.00 mM, Expt. 1): 0.235 h⁻¹
- Kobs ([1]; r.t, alkyne 2a 1.00 mM, Expt. 2): 0.246 h⁻¹
- Kobs ([1]; r.t, alkyne 2a 1.00 mM, Expt. 3): 0.247 h⁻¹
- Kobs ([1]; r.t, alkyne 2a 1.25 mM, Expt. 1): 0.289 h⁻¹
- Kobs ([1]; r.t, alkyne 2a 1.25 mM, Expt. 2): 0.295 h⁻¹
- Kobs ([1]; r.t, alkyne 2a 1.25 mM, Expt. 3): 0.307 h⁻¹
- Kobs ([1]; r.t, alkyne 2b 0.75 mM, Expt. 1): 0.201 h⁻¹
- Kobs ([1]; r.t, alkyne 2b 0.75 mM, Expt. 2): 0.195 h⁻¹
- Kobs ([1]; r.t, alkyne 2b 0.75 mM, Expt. 3): 0.197 h⁻¹
- Kobs ([1]; r.t, alkyne 2b 1.00 mM, Expt. 1): 0.261 h⁻¹
- Kobs ([1]; r.t, alkyne 2b 1.00 mM, Expt. 2): 0.257 h⁻¹
- Kobs ([1]; r.t, alkyne 2b 1.00 mM, Expt. 3): 0.261 h⁻¹
- Kobs ([1]; r.t, alkyne 2b 1.25 mM, Expt. 1): 0.309 h⁻¹
- Kobs ([1]; r.t, alkyne 2b 1.25 mM, Expt. 2): 0.318 h⁻¹
- Kobs ([1]; r.t, alkyne 2b 1.25 mM, Expt. 3): 0.326 h⁻¹
- Kobs ([1]; r.t, alkyne 2c 0.75 mM, Expt. 1): 0.0202 h⁻¹
- Kobs ([1]; r.t, alkyne 2c 0.75 mM, Expt. 2): 0.0209 h⁻¹
- Kobs ([1]; r.t, alkyne 2c 0.75 mM, Expt. 3): 0.0207 h⁻¹
- Kobs ([1]; r.t, alkyne 2c 1.00 mM, Expt. 1): 0.0282 h⁻¹
- Kobs ([1]; r.t, alkyne 2c 1.00 mM, Expt. 2): 0.0262 h⁻¹
- Kobs ([1]; r.t, alkyne 2c 1.00 mM, Expt. 3): 0.0278 h⁻¹
- Kobs ([1]; r.t, alkyne 2c 1.25 mM, Expt. 1): 0.0353 h⁻¹
- Kobs ([1]; r.t, alkyne 2c 1.25 mM, Expt. 2): 0.0341 h⁻¹
- Kobs ([1]; r.t, alkyne 2c 1.25 mM, Expt. 3): 0.0344 h⁻¹
- Kobs ([1]; r.t, alkyne 2d 0.75 mM, Expt. 1): 0.894 h⁻¹
- Kobs ([1]; r.t, alkyne 2d 0.75 mM, Expt. 2): 0.976 h⁻¹
- Kobs ([1]; r.t, alkyne 2d 0.75 mM, Expt. 3): 0.993 h⁻¹
- Kobs ([1]; r.t, alkyne 2d 1.00 mM, Expt. 1): 1.18 h⁻¹
- Kobs ([1]; r.t, alkyne 2d 1.00 mM, Expt. 2): 1.30 h⁻¹
- Kobs ([1]; r.t, alkyne 2d 1.00 mM, Expt. 3): 1.34 h⁻¹
- Kobs ([1]; r.t, alkyne 2d 1.25 mM, Expt. 1): 1.47 h⁻¹
- Kobs ([1]; r.t, alkyne 2d 1.25 mM, Expt. 2): 1.62 h⁻¹
- Kobs ([1]; r.t, alkyne 2d 1.25 mM, Expt. 3): 1.69 h⁻¹
- Lactonization rate constant k1 ([2]; alkyne 2a 5 mM, Exp 2): 0.206 h⁻¹
- Lactonization rate constant k1 ([2]; alkyne 2a 5 mM, Expt 1): 0.185 h⁻¹
- Lactonization rate constant k1 ([2]; alkyne 2a 5 mM, Expt. 3): 0.229 h⁻¹
- k1 at r.t (lactonization) ([2]; alkyne 2a, n = 3): 0.21 ± 0.04 h⁻¹
- Lactonization rate constant k1 ([2]; alkyne 2b 5 mM, Exp 2): 0.179 h⁻¹
- Lactonization rate constant k1 ([2]; alkyne 2b 5 mM, Expt 1): 0.223 h⁻¹
- Lactonization rate constant k1 ([2]; alkyne 2b 5 mM, Expt. 3): 0.196 h⁻¹
- k1 at r.t (lactonization) ([2]; alkyne 2b, n = 3): 0.20 ± 0.04 h⁻¹
- k1 at r.t (lactonization) ([2]; alkyne 2c, no intermediates observed by HPLC): too fast to detect
